From article PMC6407917, “Identification of GSK3186899/DDD853651 as a Preclinical Development Candidate for the Treatment of Visceral Leishmaniasis” (Journal of Medicinal Chemistry, 2018)

What was measured:
Experiment in all cases: biochemical
Parameters in all cases: species or system HEK293/K-562/placenta mixed human extract; Kinobeads chemoproteomic competition binding, quantified by TMT LC-MS/MS, dose response up to 20 uM
[1] = target: NEK9 (Homo sapiens, UniProt Q8TD19)
[2] = target: ULK3 (Homo sapiens, UniProt Q6PHR2)
[3] = target: PRKD2 (Homo sapiens, UniProt Q9BZL6)
[4] = target: CSNK1A1 (Homo sapiens, UniProt P48729)
[5] = target: MAP3K11 (Homo sapiens, UniProt Q16584)
[6] = target: NEK6 (Homo sapiens, UniProt Q9HC98)
[7] = target: LIMK2 (Homo sapiens, UniProt P53671)
[8] = target: CDKL5 (Homo sapiens, UniProt O76039)
[9] = target: PIK3R4 (Homo sapiens, UniProt Q99570)
[10] = target: PRKAB1 (Homo sapiens, UniProt Q9Y478)
[11] = target: MAPK1 (Homo sapiens, UniProt P28482)
[12] = target: CSNK1G3 (Homo sapiens, UniProt Q9Y6M4)
[13] = target: ILK (Homo sapiens, UniProt Q13418)
[14] = target: TP53RK (Homo sapiens, UniProt Q96S44)
[15] = target: CSNK2A1 (Homo sapiens, UniProt P68400)
[16] = target: STK38L (Homo sapiens, UniProt Q9Y2H1)
[17] = target: HIPK2 (Homo sapiens, UniProt Q9H2X6)
[18] = target: IRAK3 (Homo sapiens, UniProt Q9Y616)
[19] = target: BMP2K (Homo sapiens, UniProt Q9NSY1)
[20] = target: CHEK2 (Homo sapiens, UniProt O96017)
[21] = target: SLK (Homo sapiens, UniProt Q9H2G2)
Chain of SLK (Q9H2G2 whole entry): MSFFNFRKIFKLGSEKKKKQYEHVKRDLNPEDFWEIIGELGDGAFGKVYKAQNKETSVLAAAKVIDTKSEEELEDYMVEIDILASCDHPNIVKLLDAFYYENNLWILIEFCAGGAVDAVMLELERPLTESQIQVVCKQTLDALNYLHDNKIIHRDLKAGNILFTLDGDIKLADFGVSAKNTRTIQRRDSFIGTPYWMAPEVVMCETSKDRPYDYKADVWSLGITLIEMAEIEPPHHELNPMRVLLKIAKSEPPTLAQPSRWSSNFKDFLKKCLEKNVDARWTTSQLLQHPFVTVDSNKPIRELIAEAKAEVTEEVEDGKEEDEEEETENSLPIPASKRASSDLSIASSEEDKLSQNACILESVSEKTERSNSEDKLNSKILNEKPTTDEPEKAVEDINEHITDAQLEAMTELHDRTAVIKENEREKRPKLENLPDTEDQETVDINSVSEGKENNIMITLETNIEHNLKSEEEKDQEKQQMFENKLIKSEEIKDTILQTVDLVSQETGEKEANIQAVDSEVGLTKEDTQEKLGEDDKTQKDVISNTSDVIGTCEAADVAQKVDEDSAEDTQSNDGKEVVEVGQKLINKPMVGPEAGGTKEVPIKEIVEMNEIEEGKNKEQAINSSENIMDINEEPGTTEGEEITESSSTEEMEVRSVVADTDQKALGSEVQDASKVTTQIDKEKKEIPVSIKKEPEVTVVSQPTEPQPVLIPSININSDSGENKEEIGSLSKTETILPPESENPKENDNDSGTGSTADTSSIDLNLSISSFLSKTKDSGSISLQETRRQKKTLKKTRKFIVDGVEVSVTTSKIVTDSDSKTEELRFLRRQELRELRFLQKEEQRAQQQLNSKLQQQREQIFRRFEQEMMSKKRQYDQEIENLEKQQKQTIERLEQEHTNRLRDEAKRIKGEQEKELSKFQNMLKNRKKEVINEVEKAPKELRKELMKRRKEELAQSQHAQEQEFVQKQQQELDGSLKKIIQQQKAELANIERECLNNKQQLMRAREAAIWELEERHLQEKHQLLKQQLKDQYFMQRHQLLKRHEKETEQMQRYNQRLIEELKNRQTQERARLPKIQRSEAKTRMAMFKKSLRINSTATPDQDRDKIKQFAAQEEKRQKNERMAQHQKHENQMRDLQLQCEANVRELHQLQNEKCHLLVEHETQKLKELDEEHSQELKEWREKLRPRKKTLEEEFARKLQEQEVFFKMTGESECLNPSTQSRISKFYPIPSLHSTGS

Chain of PIK3R4 (Q99570 whole entry): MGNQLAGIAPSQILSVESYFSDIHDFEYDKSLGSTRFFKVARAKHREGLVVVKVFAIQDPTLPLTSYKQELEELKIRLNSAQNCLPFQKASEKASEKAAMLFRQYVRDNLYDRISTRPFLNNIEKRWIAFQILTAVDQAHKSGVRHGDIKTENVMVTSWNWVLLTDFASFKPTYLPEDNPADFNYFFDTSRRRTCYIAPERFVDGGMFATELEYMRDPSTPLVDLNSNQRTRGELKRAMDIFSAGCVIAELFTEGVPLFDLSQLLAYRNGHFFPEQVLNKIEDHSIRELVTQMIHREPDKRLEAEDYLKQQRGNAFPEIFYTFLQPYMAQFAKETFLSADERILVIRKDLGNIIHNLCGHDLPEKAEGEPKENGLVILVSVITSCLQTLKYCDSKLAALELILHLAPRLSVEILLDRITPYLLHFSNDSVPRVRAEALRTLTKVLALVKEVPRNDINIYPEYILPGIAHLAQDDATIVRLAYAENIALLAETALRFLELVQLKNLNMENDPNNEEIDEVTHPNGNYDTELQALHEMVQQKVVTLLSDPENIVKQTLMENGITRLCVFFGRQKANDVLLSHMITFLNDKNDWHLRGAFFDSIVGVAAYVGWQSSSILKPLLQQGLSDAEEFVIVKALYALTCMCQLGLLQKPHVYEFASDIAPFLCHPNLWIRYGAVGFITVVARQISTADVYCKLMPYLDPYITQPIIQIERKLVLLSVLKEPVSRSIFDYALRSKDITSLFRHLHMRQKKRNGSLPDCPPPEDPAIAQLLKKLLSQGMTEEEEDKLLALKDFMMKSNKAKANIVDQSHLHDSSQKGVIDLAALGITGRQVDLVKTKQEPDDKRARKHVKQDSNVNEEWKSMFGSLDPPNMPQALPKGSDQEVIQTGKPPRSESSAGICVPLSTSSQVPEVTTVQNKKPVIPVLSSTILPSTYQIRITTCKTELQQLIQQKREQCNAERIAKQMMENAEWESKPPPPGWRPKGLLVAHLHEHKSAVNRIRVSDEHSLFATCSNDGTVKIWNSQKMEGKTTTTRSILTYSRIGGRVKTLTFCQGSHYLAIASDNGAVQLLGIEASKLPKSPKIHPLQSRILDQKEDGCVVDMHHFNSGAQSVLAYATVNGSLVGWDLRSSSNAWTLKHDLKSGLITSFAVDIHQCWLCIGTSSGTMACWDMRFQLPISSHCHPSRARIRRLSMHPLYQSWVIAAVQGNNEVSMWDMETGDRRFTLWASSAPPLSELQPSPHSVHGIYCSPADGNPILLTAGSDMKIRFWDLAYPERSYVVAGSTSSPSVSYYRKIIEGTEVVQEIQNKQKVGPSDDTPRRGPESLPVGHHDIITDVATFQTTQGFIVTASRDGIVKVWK
Chain of PRKD2 (Q9BZL6 whole entry): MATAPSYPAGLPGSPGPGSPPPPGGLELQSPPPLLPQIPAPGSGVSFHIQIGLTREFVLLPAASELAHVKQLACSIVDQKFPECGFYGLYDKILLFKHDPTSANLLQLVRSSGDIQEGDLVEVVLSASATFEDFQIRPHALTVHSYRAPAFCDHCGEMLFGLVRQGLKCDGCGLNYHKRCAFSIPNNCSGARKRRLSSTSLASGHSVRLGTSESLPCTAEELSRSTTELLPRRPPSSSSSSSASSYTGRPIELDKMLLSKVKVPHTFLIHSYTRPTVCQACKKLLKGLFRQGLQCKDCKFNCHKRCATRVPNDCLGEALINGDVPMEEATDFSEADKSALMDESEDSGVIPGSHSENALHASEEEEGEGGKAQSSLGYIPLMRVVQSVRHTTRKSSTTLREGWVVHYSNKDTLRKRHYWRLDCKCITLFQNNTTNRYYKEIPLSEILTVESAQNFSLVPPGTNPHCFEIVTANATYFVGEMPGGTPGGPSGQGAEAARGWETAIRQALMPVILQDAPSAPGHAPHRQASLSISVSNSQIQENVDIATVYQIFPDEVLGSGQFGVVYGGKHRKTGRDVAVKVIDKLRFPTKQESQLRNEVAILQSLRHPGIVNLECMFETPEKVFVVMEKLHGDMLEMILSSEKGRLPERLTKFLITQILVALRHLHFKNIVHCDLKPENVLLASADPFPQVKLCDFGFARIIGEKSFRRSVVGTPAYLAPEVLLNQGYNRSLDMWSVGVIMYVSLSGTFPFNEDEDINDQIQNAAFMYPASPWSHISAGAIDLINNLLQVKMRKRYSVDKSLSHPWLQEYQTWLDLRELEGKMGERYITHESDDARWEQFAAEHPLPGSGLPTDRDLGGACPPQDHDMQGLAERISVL
Chain of CHEK2 (O96017 whole entry): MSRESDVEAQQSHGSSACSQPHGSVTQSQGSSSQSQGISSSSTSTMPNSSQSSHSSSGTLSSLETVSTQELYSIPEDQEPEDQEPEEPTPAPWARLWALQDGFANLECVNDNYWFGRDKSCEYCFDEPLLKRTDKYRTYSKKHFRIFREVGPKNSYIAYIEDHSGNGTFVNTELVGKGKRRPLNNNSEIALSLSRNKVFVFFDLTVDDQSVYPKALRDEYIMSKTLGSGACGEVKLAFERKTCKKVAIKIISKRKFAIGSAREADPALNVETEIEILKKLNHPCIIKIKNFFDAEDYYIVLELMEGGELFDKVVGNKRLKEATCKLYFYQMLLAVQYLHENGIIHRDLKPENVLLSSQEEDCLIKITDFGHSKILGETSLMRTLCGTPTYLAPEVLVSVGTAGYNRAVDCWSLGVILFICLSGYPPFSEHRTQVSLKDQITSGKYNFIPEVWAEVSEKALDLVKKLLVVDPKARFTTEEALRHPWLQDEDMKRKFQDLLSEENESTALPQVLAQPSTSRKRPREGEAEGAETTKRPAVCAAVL
Chain of TP53RK (Q96S44 whole entry): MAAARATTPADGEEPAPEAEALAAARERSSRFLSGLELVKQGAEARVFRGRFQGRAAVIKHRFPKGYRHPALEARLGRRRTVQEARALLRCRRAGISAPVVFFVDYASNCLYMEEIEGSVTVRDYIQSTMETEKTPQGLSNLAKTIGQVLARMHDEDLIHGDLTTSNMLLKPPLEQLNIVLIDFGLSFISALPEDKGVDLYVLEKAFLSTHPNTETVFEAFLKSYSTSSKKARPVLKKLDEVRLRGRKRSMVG
Chain of CSNK1G3 (Q9Y6M4 whole entry): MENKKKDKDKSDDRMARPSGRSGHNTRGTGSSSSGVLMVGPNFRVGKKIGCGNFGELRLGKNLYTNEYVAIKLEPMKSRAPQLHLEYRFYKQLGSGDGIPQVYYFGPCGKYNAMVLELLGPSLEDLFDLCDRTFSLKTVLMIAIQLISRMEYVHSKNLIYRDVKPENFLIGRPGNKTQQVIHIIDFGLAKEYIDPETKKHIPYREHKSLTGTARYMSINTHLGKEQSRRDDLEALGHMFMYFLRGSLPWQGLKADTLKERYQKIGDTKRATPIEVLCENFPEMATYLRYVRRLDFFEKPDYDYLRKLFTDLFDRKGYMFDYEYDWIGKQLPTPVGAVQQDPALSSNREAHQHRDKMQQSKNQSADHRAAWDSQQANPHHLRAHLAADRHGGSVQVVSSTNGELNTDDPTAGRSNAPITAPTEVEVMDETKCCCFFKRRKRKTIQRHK
Chain of NEK6 (Q9HC98 whole entry): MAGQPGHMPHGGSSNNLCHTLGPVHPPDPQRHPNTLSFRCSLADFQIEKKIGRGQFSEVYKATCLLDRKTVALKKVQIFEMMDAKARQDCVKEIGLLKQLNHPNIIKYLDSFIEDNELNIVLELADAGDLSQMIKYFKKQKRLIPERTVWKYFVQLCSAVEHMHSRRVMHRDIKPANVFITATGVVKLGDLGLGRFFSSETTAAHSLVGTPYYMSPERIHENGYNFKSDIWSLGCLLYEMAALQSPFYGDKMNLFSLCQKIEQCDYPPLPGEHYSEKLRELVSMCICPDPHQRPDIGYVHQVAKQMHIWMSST

IC50 [2]: ≥ 20 µM
IC50 [3]: ≥ 20 µM
IC50 [4]: ≥ 20 µM
IC50 [5]: ≥ 20 µM
IC50 [6]: ≥ 20 µM
IC50 [7]: ≥ 20 µM
IC50 [8]: ≥ 20 µM
IC50 [9]: ≥ 20 µM
IC50 [10]: ≥ 20 µM
IC50 [11]: ≥ 20 µM
IC50 [12]: ≥ 20 µM
IC50 [13]: ≥ 20 µM
IC50 [14]: ≥ 20 µM
IC50 [15]: ≥ 20 µM
IC50 [16]: ≥ 20 µM
IC50 [17]: ≥ 20 µM
IC50 [18]: ≥ 20 µM
IC50 [19]: ≥ 20 µM
IC50 [20]: ≥ 20 µM
IC50 [21]: ≥ 20 µM
Compound: COc1ccccc1-c1n[nH]c2nc(N[C@H]3CC[C@H](NS(=O)(=O)CCC(F)(F)F)CC3)nc(OC)c12 [compound 31, 3,3,3-Trifluoro-N-(trans-4-((4-methoxy-3-(2-methoxyphenyl)-1H-pyrazolo[3,4-d]pyrimidin-6-yl)amino)cyclohexyl)propane-1-sulfonamide]
IC50 [1]: ≥ 20 µM
